In US8536196B2, “Substituted 1,3-dioxanes useful as PPAR modulators” (Evolva SA, priority 2007, dated 2013):
pIC50: −log10 of the molar value.

What was measured:
Gal4-PPARgammaLBD = biological target: T1, Gal4-PPARgammaLBD (Homo sapiens, UniProt P37231); test: PPARgamma transactivation assay (Gal4-PPARgammaLBD, UASx4-TK-luc reporter); assay type: cell-based; details: 10 μM
T1 construct: expressed in transfected cells; host or cells: mouse embryonic fibroblasts (MEFs) or ME3 cells
T1 sequence (P37231 204-505): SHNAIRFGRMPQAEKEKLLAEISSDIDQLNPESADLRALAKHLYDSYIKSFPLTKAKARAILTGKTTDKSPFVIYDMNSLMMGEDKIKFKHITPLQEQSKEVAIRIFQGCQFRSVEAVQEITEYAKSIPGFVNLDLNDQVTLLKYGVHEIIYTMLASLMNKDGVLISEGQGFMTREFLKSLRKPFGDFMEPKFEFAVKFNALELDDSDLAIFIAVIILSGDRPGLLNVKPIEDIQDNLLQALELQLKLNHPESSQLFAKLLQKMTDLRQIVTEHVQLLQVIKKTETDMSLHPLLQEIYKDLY
Description: This is an example of a transactivation assay for determining PPAR gamma modulating activity.
The UASx-4-TK-luc reporter construct (where UAS refers to “upstream activator sequence”) contains four Gal4-responsive elements. The plasmid Gal4-PPARgammaLBD encodes a Gal4-DBD-PPARgamma-LBD fusion protein (i.e. the DNA-binding domain, DBD, of Gal4 fused to the ligand-binding domain, LBD, of PPARgamma) capable of transactivating the UASx-4-TK-luc reporter plasmid by binding to the UAS. The CMV-beta-galactosidase plasmid (where CMV is cytomegalovirus) is used for normalization of experimental values.
The cells were replated, typically in 24 well plates, so that at the time of transfection the cells are 50-70% confluent.
Briefly, per well in a 24 well plate, UASx4TKIuc (0.2 μg) Gal4-PPARgammaLBD (or pM-hPPARgamma-LBD; 0.1 μg) and CMV-beta-galactosidase (0.05 μg) in 30 μL DMEM (free of serum and antibiotics) is mixed with 30 μL DMEM (free of serum and antibiotics) containing 1 μL metafectenein. The mixture is incubated at room temperature for 20 min to allow formation of nucleic acid-lipid complexes and then approximately 60 μL is added to each well containing the 50-60% confluent cells. […] Cells were harvested after 12-24 hours and luciferase and beta-galactosidase activities were measured according to standard protocols.
“−” means that testing was not performed.

[1] = biological target: T2, full length human PPARgamma (hPPARg2) (Homo sapiens, UniProt P37231); test: Transactivation assay with full length human PPARgamma; assay type: cell-based
T2 construct: expressed in transfected cells
T2 sequence (P37231 1-505): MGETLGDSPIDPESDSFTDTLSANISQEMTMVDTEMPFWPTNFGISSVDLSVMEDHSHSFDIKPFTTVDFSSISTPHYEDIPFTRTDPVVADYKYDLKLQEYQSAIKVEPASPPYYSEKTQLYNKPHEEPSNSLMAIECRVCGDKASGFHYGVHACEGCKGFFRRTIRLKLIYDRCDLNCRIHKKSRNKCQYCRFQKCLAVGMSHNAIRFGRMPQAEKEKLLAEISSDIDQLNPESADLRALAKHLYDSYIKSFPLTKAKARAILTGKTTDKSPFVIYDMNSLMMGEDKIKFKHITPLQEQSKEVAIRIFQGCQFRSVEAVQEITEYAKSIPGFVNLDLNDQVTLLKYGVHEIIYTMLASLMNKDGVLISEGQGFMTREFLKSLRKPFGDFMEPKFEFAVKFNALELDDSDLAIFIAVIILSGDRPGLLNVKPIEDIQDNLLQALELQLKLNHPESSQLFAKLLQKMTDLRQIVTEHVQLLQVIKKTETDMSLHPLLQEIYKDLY
Description: When this assay was carried out essentially as described above but with the full length human PPARgamma rather than with the PPARgamma ligand binding domain, activation of full-length hPPARg2 was seen to 64% of the Avandia positive control (FIG. 3).

mPPARalphaLBD = biological target: T3, mPPARalphaLBD (Mus musculus, UniProt P23204); test: PPARalpha transactivation assay; assay type: cell-based
T3 construct: expressed in transfected cells
T3 sequence (P23204 239-466 limits assumed): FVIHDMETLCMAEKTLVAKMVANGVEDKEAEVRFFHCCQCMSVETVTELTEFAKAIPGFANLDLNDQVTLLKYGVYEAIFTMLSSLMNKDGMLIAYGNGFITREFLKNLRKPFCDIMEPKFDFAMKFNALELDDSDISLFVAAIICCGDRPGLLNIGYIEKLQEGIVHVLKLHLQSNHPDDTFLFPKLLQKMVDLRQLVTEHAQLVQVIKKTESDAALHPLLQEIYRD
Description: This example describes a transactivation assay for determining PPARalpha modulating activity.
DPD and other ligands are tested for their ability to transactivate PPARalpha essentially as described in Example 22.

3T3-L1 preadipocytes = test: Glucose uptake assay; assay type: cell-based
Description: This example illustrates that compounds identified as PPARgamma agonists also produce a physiological effect in cellular assays, expected of a PPARgamma agonist, namely an effect on glucose uptake. Glucose uptake assays are important to establish the suitability of a compound for the treatment of insulin resistance.
Briefly, 3T3-L1 preadipocytes are grown in 12-well plates until confluence. Cells are washed with serum-free DMEM and incubated with 1 ml of the same medium at 37° C. for 1-2 h. The cells are then washed with Krebs-Ringer-Hepes (KRP) buffer and then incubated with 0.9 ml KRP buffer at 37° C. for 30 min. Insulin is added to the cells at 0, 0.3, 1 and 3 nM final concentrations and incubated for 15 min at 37° C. Glucose uptake is initiated by the addition of 0.1 ml of Krebs-Ringer phosphate (KRP) buffer supplemented with 10 mM [^3H] 2-deoxy-D-glucose (1 mCi/l). After 10 min incubation at 37° C., the medium is aspirated and plates washed with ice-cold PBS to terminate the induced glucose uptake. The cells are lyzed with 0.5 ml 1% Triton X-100 and radioactivity levels determined using a scintillation counter. The results are depicted in FIG. 7.

PPARgamma (h) = biological target: T4, PPARgamma (h) (Homo sapiens, UniProt P37231); test: Human recombinant (E. coli) PPARgamma (h) binding assay; details: [3H]-rosiglitazone 10 nM, 120 min at 4° C.
T4 construct: host or cells: E. coli
T4 sequence (P37231 1-505): T2 sequence (P37231 1-505)
Description: The results are expressed as a percent of control specific binding ((measured specific binding/control specific binding)×100) obtained in the presence of the test compounds. The IC50 values (concentration causing a half-maximal inhibition of control specific binding) and Hill coefficients (nH) were determined by non-linear regression analysis of the competition curves generated with mean replicate values using Hill equation curve fitting (Y=D+[(A D)/(1+(C/C50)nH)], where Y=specific binding, D=minimum specific binding, A=maximum specific binding, C=compound concentration, C50=IC50, and nH=slope factor). This analysis was performed using a software developed at Cerep (Hill software) and validated by comparison with data generated by the commercial software SigmaPlot® 4.0 for Windows® (© 1997 by SPSS Inc.). The inhibition constants (Ki) were calculated using the Cheng Prusoff equation (Ki=IC50/(1+(L/KD)), where L=concentration of radioligand in the assay, and KD=affinity of the radioligand for the receptor).

In the case of `O=C(O)CC/C=C\CC1COC(c2ccccc2Cl)OC1c1ccccc1O` (racemic) [SN1, (Z)-6-(-2-(2-chlorophenyl)-4-(2-hydroxyphenyl)-1,3-dioxan-5-yl)hex-4-enoic acid], the “PPAR transactivation higher than with DMSO alone” value (Gal4-PPARgammaLBD) was “about 10 fold”, the “activation of full-length hPPARg2, % of the Avandia positive control” value [1] was 64% and the “increase in PPARalpha transactivation” value (mPPARalphaLBD) was “no transactivation”. For the same compound, the “glucose uptake compared with Avandia” value (3T3-L1 preadipocytes) was “same level of glucose uptake at 10 mM as Avandia at 1 mM” and the pIC50 (PPARgamma (h)) was 4.68.
